# Several values for one entry are separate records, joined by “and”; a condition that tells them apart may be missing. Identical values can stand only once.
# Columns and labels:
# [1] = tested on: proteasome CT-L active site; conditions: literature values of known proteasome inhibitors; reference per compound; cited from earlier work
# [2] = tested on: proteasome C-L active site; conditions: literature values; ref 34 (bortezomib), 35 (ixazomib); cited from earlier work
# [3] = molecular target: T1, 20S proteasome in K562 cell lysates, C-L activity (Homo sapiens, UniProt P28072); test: Proteasome inhibition assay in cell lysates, K562, C-L; conditions: for inhibition at 10 µM: read-out: percentage of proteasome inhibition, C-L, cell lysates K562, at 10 µM; for inhibition at 100 µM: read-out: percentage of proteasome inhibition, C-L, cell lysates K562, at 100 µM
# T1 sequence (P28072 35-239 limits assumed): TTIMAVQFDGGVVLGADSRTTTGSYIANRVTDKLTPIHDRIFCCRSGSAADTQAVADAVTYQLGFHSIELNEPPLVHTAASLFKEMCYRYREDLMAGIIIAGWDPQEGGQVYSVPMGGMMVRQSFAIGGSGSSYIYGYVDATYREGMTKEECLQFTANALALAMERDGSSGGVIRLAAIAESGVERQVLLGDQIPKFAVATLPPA
# T1 sequence (Q99436 44-277 partner): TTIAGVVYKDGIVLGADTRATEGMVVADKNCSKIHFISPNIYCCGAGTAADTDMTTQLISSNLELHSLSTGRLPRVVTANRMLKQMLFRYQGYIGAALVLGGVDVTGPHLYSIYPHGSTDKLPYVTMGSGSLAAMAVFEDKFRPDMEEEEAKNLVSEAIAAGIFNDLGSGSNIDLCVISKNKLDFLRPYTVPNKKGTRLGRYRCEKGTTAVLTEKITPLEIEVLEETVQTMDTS
# Method: Cells were obtained from several cultured cell lines: Jurkat, K562, HT-29, and HCT116. Pellets with 20 × 10^6 cells were prepared and washed with cold sterile phosphate buffered saline (PBS), 1×, pH 7.4 (Gibco, Thermo Fisher Scientific, Paisley, UK). The preparation of the lysates from several cell lines was performed based on the methodology described by Gavioli et al. [67]. Cells were resuspended in buffer containing 50 mM TRIS-HCl pH 7.4 (Nzytech, Lisboa, Portugal), 5 mM MgCl2 (≥98% purity, Merck, Hamburg, Germany), 1 mM DTT (Merck, Hamburg, Germany), 2 mM ATP (≥98% purity, Enzo Life Sciences Inc., Farmingdale, NY, USA), and 250 mM saccharose (Merck, Hamburg, Germany). Glass beads (Merck, Hamburg, Germany) equivalent to the volume of the cell suspension were added, and the mixture was vortexed for 2 min at 4 °C. Beads and cell debris were removed using 5 min centrifugation at 1000× g and 4 °C, followed by 20 min of centrifugation at 10,000× g at 4 °C. Cell lysates containing proteasomes were resuspended in “activity buffer” [50 mM TRIS-HCl (pH 7.4), 5 mM MgCl2, 1 mM DTT, 2 mM ATP (≥98% purity, Enzo Life Sciences Inc., Farmingdale, NY, USA), and 500 µM EDTA (≥98% purity, Merck, Hamburg, Germany)]. Protein concentration was determined using the Pierce™ BCA protocol (Thermo Fisher Scientific, Rockford, IL, USA). […] DMSO was added in an equal volume as used for the untreated compounds as a way to assess/control its influence in the assay. Untreated cells were used as control. In each well of a 96-well plate, 25 µL of lysate were seeded in duplicate with 25 µL of the compound to test; in the control, 25 µL of activity buffer were added to the 25 µL of lysate. A blank (50 µL of activity buffer) was added to the wells in quadruplicate. Cell lysates, pre-treated or not with different concentrations of the test compounds, were incubated for 30 min at 37 °C. […] Stock solutions (10 mM) of each substrate were prepared in DMSO, diluted in activity buffer, and 50 µL were added to all wells (final concentration of each substrate = 100 µM), followed by an incubation at 37 °C for 60 min. Samples fluorescence was measured at an excitation wavelength of 360 nm and emission of 465 nm; the fluorescence measures were performed using the GloMax-Multi + Detection System (Promega Corp., Madison, WI, USA). Activity was evaluated in fluorescence units, after being converted to percentage of proteasome inhibition and, whenever possible, expressed as IC50 by plotting the inhibition data of each compound at different concentrations against the log of the concentration of the inhibitor, using the GraphPad Prism software version 7. At least eight different concentrations of the test compounds were used.
# K562 cells = test: Cell viability, MTT assay, K562; type: cell-based, human; conditions: at 100 µM, 72 h
# Method: Whenever possible, additional concentrations were tested and IC50 values were determined.
# Human leukemia Jurkat E6.1 T-cell line and K562-cell line were originally obtained from ATCC Collections (Manassas, VA, USA); human HT-29 and HCT116 colorectal carcinoma-cell lines were obtained from ECACC (Porton Down, Porton, UK). Cells were passaged for less than 6 months after and routinely tested for mycoplasma contamination using Mycoalert detection kit (Lonza, Basel, Switzerland). Jurkat, K562, and HT-29 cells were maintained in Roswell Park Memorial Institute (RPMI) 1640 with GlutaMAX™, supplemented with 1% antibiotic mixture (100 µg/mL streptomycin and 100 U/mL penicillin) and 10% heat-inactivated foetal bovine serum (FBS) (all from Gibco, Thermo Fisher Scientific, Paisley, UK). HCT116 cells were maintained in Dulbecco’s Modified Eagle Medium (DMEM) with GlutaMAX™, supplemented with 1% antibiotic mixture (100 µg/mL streptomycin and 100 U/mL penicillin) and 10% heat-inactivated FBS (all from Gibco, Thermo Fisher Scientific, Paisley, UK). Incubation was performed at 37 °C in a 5% CO2 atmosphere. Cells were routinely passaged every 2 or 3 days at 70–90% confluence; TrypLE Express (Gibco, Thermo Fisher Scientific, Paisley, UK) was used as dissociation agent for adherent cells. Trypan blue (Gibco, Thermo Fisher Scientific, Paisley, UK) was used to assess cell viability using the dye exclusion test.
# To assess cell viability, the MTT assay was performed. Jurkat/K562/HT-29/HCT116 cell lines were seeded in triplicate (10,000 cells/well) in 96-well plates with 50 µL of complete medium and incubated at 37 °C, 5% CO2 for 24 h to allow the cells to adhere to the plate (in the case of adherent cells). […] Untreated cells seeded in triplicate were used as control. The blank was performed in triplicate with 100 µL of culture medium. The cells were incubated with the compounds, in triplicate, in 100 µL of total volume, at 37 °C, 5% CO2 for 72 h. […] In suspension cells (Jurkat), 25 µL of MTT were directly added to each well and, after 3 h 30 m of incubation, 100 µL of DMSO were added to solubilize the formazan crystals; in adherent cells (HT-29 and HCT116), the culture medium was removed, 25 µL of MTT were added to each well and, after 3 h 30 m of incubation, upon MTT removal, 100 µL of DMSO were added to solubilize the formazan crystals. After 15 min, the samples absorbance was measured at 570 nm and the percentage of cell viability was determined.
# [4] = at 100 µM, Table 2 legend: bortezomib 10 µM
# [5] = Table 2 legend: bortezomib 10 µM
compound,measurement,setting,value
"CC(C)C[C@H](NC(=O)[C@H](Cc1ccccc1)NC(=O)c1cnccn1)B(O)O [Bortezomib, bortezomib, reference compound]",IC50,[1],7 nM
same,IC50,[2],74 nM
same,"percentage of proteasome inhibition, C-L, cell lysates K562",[3]; at 10 µM,94.99%
same,"percentage of proteasome inhibition, C-L, cell lysates K562",[3]; [4],97.19% and 97%
Cc1ccc(/C(=N/NS(=O)(=O)c2ccc([N+](=O)[O-])cc2)Sc2cc(Cl)c(C)cc2S(N)(=O)=O)cc1 [Compound 3],"percentage of proteasome inhibition, C-L, cell lysates K562",[3]; [4],39%
same,inhibition at 10 µM,[3],14.2%
same,inhibition at 100 µM,[3]; [5],38.8%
O=C1c2ccccc2C(=O)c2c(Nc3ccc(S(=O)(=O)N(CCO)CCO)cc3)ccc(O)c21 [Compound 2],"percentage of cell viability, MTT, K562",K562 cells,86.52%
same,"percentage of proteasome inhibition, C-L, cell lysates K562",[3]; [4],63%
same,inhibition at 10 µM,[3],0%
same,inhibition at 100 µM,[3]; [5],63.2%
Cc1ccc2ccccc2c1CSc1ncnc2c1ncn2C1OC(CO)C(O)C1O (stereo not drawn) [Compound 1],"percentage of cell viability, MTT, K562",K562 cells,18%
same,"percentage of proteasome inhibition, C-L, cell lysates K562",[3]; [4],28%
same,inhibition at 10 µM,[3],0%
same,inhibition at 100 µM,[3]; [5],28.2%
